The values below come from patent US10624947B2, “Bactericidal peptides and uses thereof” (INDIANA UNIVERSITY RESEARCH AND TECHNOLOGY CORPORATION, priority 2016, dated 2020).

Molecules are shown by their SMILES. Values after ≈ are worked out from the molar mass of the structure shown. “Also recorded” adds a separate entry of the source. Square brackets hold non-standard residues; d marks the D form. Peptide text beside a SMILES is read from it. AEEA = NCCOCCOCC(=O)O

One data set deals with Pseudomonas aeruginosa. The data set is classed as cell-based.
The next data set has as its system V. vulnificus. Put plainly: Iron-dextran septicemia model. The data set is classed as in vivo, mice (strain CD-1). To be noted: 10 or 20 μM intraperitoneally 1 h after V. vulnificus. How it is done: (§1) FIGS. 23A, B show the efficacy and toxicity of modified peptides in mice. […] The survival of mice injected intraperitoneally with iron dextran at 48 h after intraperitoneal injection of 10 or 20 μM of the modified peptides. […] Vibrio vulnificus (V. v.) strain CMCP6 was injected at 1×10^6 CFU. […] All mice receive iron dextran by intraperitoneal injection. Where indicated, 1 h later 10^6 bacterial CFU in 100 μL was injected into the peritoneum (opposite side). 1 h later, 100 μL of the peptide at the indicated concentration was administered on the same side as the bacterial injection.
(§2) Since B22a was effective in preventing infection of V. vulnificus in a surgical incision model, we tested it for efficacy for systemic infection in a mouse septicemia model (1). Groups of mice (strain CD-1) were first injected with […], followed 1 h later with an intraperitoneal injection of 1×10e6 colony forming units of V. vulnificus strain […]. The B22a was then injected intraperitoneally 1 h later and morbidity was monitored hourly for two days.
PB22N and other modified peptides were tested in a septicemic mouse model. V. vulnificus is a highly-pathogenic bacterium, causing septicemia and high mortality. In mice injected intraperitoneally with V. vulnificus, the majority of the mice had to be euthanized within 24 h due to severe symptoms associated with septicemia (FIG. 23B). […]

Data set [1] can be described thus: Toxicity of peptides injected intraperitoneally. It is filed as in vivo, mice. Particulars: intraperitoneal, 10 or 20 μM. Here is the method: as §1, §2
PB22N and other modified peptides were tested in a septicemic mouse model. V. vulnificus is a highly-pathogenic bacterium, causing septicemia and high mortality. In mice injected intraperitoneally with V. vulnificus, the majority of the mice had to be euthanized within 24 h due to severe symptoms associated with septicemia (FIG. 23B). […] PB22N was effective in preventing mice from succumbing to systemic infection by the highly virulent V. vulnificus.

In data set [2] the test system is twenty representative Gram-negative bacteria of the Enterobacteriacea. Put plainly: MIC panel. The data set is classed as cell-based. Particulars: Table 10. The text has this:
The lack of efficacy of B22a in inhibiting systemic bacterial infection may have been due to it not being sufficiently stable in vivo. Therefore, three peptides were synthesized that contain the B22 amino acid sequence with additional modifications. Peptide AB22a (SEQ ID No. 32) has an N-terminal acetyl group (CH3C(O)) and a C-terminal amide (NH2). Peptide AB22P (SEQ ID No. 33) has an N-terminal acetyl group and a C-terminal polyethyleneglycol (PEG) (PEG=conjugated 8-amino 3,6-dioxaoctanoic acid). Peptide PB22N (SEQ ID No. 34) has a PEG at the N-terminus. In vitro, PB22N was effective in inhibiting the growth of the majority of the Gram-negative bacteria of the Enterobacteriacea. […] PB22N was also efficacious in inhibiting antibiotic-resistant clinical isolates of Klebsiella pneumoniae (Table 11).

Experimental for Escherichia coli: (§3) Antimicrobial activity was determined using the broth microdilution method based on the general recommendation of the Clinical and Laboratory Standards Institute. Bacteria were grown in Mueller-Hinton broth at 37° C. until OD625 reached 0.06, and then bacteria were further diluted into 1:20 for later use. […] 10 microliter (μL) of diluted bacteria was mixed with 90 μL of peptides at varying concentrations followed by incubation at 37° C. for 16-18 hours. The MIC is the lowest peptide concentration at which visible growth was inhibited. The MIC value was determined at least twice in independent experiments and typically in 3-4 assays.
Experimental for Klebsiella pneumoniae: as §3
Experimental for Pseudomonas aeruginosa: as §3

Turning to `CC[C@H](C)[C@H](NC(=O)[C@@H](NC(=O)[C@@H]1CCCN1C(=O)[C@H](CO)NC(=O)[C@H](CC(C)C)NC(=O)[C@H](CCCCN)NC(=O)[C@H](CCCCN)NC(=O)[C@H](Cc1ccccc1)NC(=O)[C@H](CC(C)C)NC(=O)[C@H](CCCCN)NC(=O)[C@H](CCCCN)NC(=O)[C@H](CC(C)C)NC(=O)[C@H](CCCCN)NC(=O)[C@H](CCCCN)NC(=O)[C@H](CCCNC(=N)N)NC(=O)[C@H](Cc1ccccc1)NC(=O)COCCOCCN)C(C)C)C(=O)N1CCC[C@H]1C(=O)N[C@@H](CC(C)C)C(=O)N[C@@H](CC(C)C)C(=O)N[C@@H](CCCCN)C(=O)N[C@@H](CC(C)C)C(=O)NCC(N)=O` [PB22N] (H-[AEEA]FRKKLKKLFKKLSPVIPLLKLG-NH2), the Minimal inhibitory concentration in the data set on Pseudomonas aeruginosa, in the data set with Escherichia coli and in the data set with Klebsiella pneumoniae was 1 µM (≈ 2.74 µg/mL) throughout. The “Outcome in mouse septicemia model” value in the data set with V. vulnificus was “survived and did not exhibit symptoms of infection”. The “Toxicity signs in mice injected with peptide” value in data set [1] is reported as “no obvious symptoms were observed; also recorded: no obvious effects on mice behavior or appearance”. Further, in data set [2], the “MICs relative to B22a” value is on record as “approximately two-fold better”.
